Patent publication US8268962B2, “Molecules for targeting compounds to various selected organs or tissues” (Prosensa Technologies B.V., priority 2007, dated 2012)
Where no end group is shown, it is not given here.

Legend:
mdx mouse = assay: In vivo targeting after subcutaneous injection of Cy5-labeled peptide (fluorescence imaging); conditions: 71 nmol subcutaneously on the back, 48 hours
Method: Peptide LGAQSNF was synthesized with the fluorescent label Cy5. This label can be detected with a high sensitivity by a fluorescence imaging system (NightOWL, Berthold Technologies) after systemic (intravenous or subcutaneous) injection into a mouse. This enables monitoring of the distribution across the different organs of a living mouse after injection of the compound. Of this peptide, 71 nmol was injected subcutaneously on the back of an mdx mouse and after 48 hours a picture was taken with the imaging system.
The mouse is lying on its back, and the back paws and an area on the abdomen were first shaved because the hairs on the skin impair detection of the signal. A clear signal could be detected in the back and front paws and in the tail. The signal in the shaved area on the abdomen is likely from abdominal muscle.

[1] = tested on: gastrocnemius (calf muscle) of mdx mice; conditions: intramuscular, 2.5-5 nmol, cross-sections after three days
Method: FAM-labeled peptides QLFTSAS (SEQ ID NO.: 3) (5 nmol injected), LYQDYSL (SEQ ID NO.: 85) (2.5 nmol injected) and LGAQSNF (SEQ ID NO.: 100) (2.5 nmol injected) were analysed. After three days the mice were sacrificed and the muscles were snap frozen. Cross-sections were cut, fixed with acetone and mounted for analysis with a fluorescence microscope. Cross-sections were cut and photographed with a fluorescence microscope (CCD camera).

[2] = tested on: gastrocnemius muscle of a healthy mouse; conditions: intramuscular, 5 nmol, after 3 days
Method: Uptake of the FAM-labeled peptides QLFTSAS (SEQ ID NO.: 3) and LGAQSNF (SEQ ID NO.: 100) was also tested on the muscle of a healthy mouse. Of each peptide 5 nmol was injected into the gastrocnemius muscle. After 3 days the mice were sacrified and the amount of staining was assessed. Samples were photographed with an inverted fluorescence microscope.

[3] = tested on: myotubes obtained from human KM109 myoblast cultures; assay: Uptake of FAM-labeled peptides and conjugate into cultured myotubes (fluorescence microscopy); format: cell-based; conditions: tested on human and mouse myotubes, no fixation
Method: Two of the peptides that occurred frequently after selection on both mouse and human myotubes, SPNSIGT and QLFTSAS, were synthesized with a fluorescent label (FAM) and tested for uptake into human and mouse differentiated muscle cells (myotubes). Myotubes were obtained from confluent human KM109 myoblast cultures by 7-14 days of serum deprivation. The culture was subsequently incubated with FAM-labeled peptide and photographed with an inverted fluorescence microscope, without previous fixation.
Peptide QLFTSAS was synthesized with a fluorescent label (FAM) and subsequently conjugated to a 21-mer 2′O-methyl phosphorothioate anti-sense oligonucleotide (AON). Myotubes were obtained from confluent human KM109 myoblast cultures by 7-14 days of serum deprivation. The culture was subsequently incubated with the FAM-labeled conjugate and photographed with an inverted fluorescence microscope, without previous fixation.
Three of the peptides that were found after four rounds of in vivo selection, were synthesized with a fluorescent label (FAM) and tested in cell culture for uptake on human myotubes as described in Example 1.

| Substance | distribution of Cy5-labeled peptide (mdx mouse) | uptake of FAM-labeled peptide into muscle fibers [1] | uptake of FAM-labeled peptide into myofibers of the injected muscle [2] | uptake of FAM-labeled peptide into cultured myotubes [3] |
| --- | --- | --- | --- | --- |
| Cy5-labeled peptide LGAQSNF: Peptide LGAQSNF synthesized with the fluorescent label Cy5 (also: Cy5 label) | taken up by the abdominal muscle and by muscles in the hindlegs, paws and tail |  |  |  |
| LGAQSNF |  | taken up into a large area of muscle fibers and were still visible after 3 days | significant area of uptake |  |
| LYQDYSL |  | taken up into a large area of muscle fibers and were still visible after 3 days |  |  |
| QLFTSAS (also: FAM label) |  | taken up into a large area of muscle fibers and were still visible after 3 days | significant area of uptake | significant uptake |
| SPNSIGT (also: FAM label) [7-mer peptide from in vitro phage selection on myotubes; tested with FAM label] |  |  |  | significant uptake |
